“Also recorded” adds a separate entry of the source.
Tests used:
MCF-7/R7 [1] = test: Rhodamine accumulation by flow cytometry in MCF-7/R7; assay type: cell-based, human; conditions: 5 μM Rhodamine, 30 min, FIG. 7-(c)
Method: (§1) The next day, the cells in a fresh medium containing 5 μM Rhodamine were cultured at 37° C. for 30 min in a CO2 incubator to incorporate the compound into the cells. After a lapse of 30 min, the cells were rapidly chilled on ice, washed once with PBS, detached using 2.5% trypsin. […] The collected cells were suspended in Hank's Balanced Salt Solutions with 1% BSA and subjected to fluorometry of the compound using a flow cytometer, FACSCalibur (Becton Dickinson and Company). The value was indicated as Intracellular Accumulation (FIG. 7-(c)).

MCF-7/T8 [2] = test: Rhodamine accumulation by flow cytometry in MCF-7/T8; assay type: cell-based, human; conditions: 5 μM Rhodamine, 30 min, FIG. 7-(c)
Method: as §1

PC-13/Vector = test: SRB drug sensitivity, PC-13 transfected with vector alone; assay type: cell-based; conditions: Homo sapiens, average ± standard error of three independent experiments
Method: (§2) Test cells in the logarithmic growth phase were dispensed into wells of 96-well plate at 1×10^3 cells/well. After subculture for 24 hours in a CO2 incubator, a serial diluted agent was added to each well. After further incubation for 72 hours, the cells were fixed with trichloroacetic acid (TCA) and the proteins in the cells were stained by 0.4% sulforhodamine B solution. The samples were eluted by 10 mM Tris-HCl for 1 hour, and each well was measured at 560 nm with a 450 nm reference, by a SPECTRAmax 250 plate reader (Molecular Devices Corp.).
(§3) PC-13 cells were transfected with the ABCG2 expression plasmids using Effectene Transfection Reagent (QIAGEN). The experiment was performed according to the attached procedural manual. As a control experiment, other PC-13 cells were transfected with vector alone without the ABCG2 sequence. The two experiments were conducted simultaneously. Two days after the transfection, the original media were replaced with selection media containing 0.2 mg/ml of Geneticin (GIBCO BRL). By culture for a long time under this condition, stable transfectant clones with the introduced plasmids were selected. Two weeks from the transfection, emerging colonies were picked and expression of ABCG2 in the cells was examined by Northern Blot analysis.

MCF-7/R7 [3] = test: Mitoxantrone accumulation by flow cytometry in MCF-7/R7; assay type: cell-based, human; conditions: 20 μM Mitoxantrone, 90 min, FIG. 7-(b)
Method: (§4) The amount of accumulation of Mitoxantrone in the MCF-7 stable transfectants with introduced ABCG2 of the present invention or ABCG2-482T was measured as follows.
(§5) Cells seeded at 1.0×10^6 cells/well in a 6-well culture plate were incubated for overnight. The next day, the cells in a fresh medium containing 20 μM Mitoxantrone were cultured at 37° C. for 90 min in a CO2 incubator to incorporate the compound into the cells. After a lapse of 90 min, the cells were rapidly chilled on ice, washed once with PBS, detached using 2.5% trypsin. The lysate was centrifuged at 400×g at 4° C. for 3 min to collect the cells. The collected cells were suspended in Hank's Balanced Salt Solutions containing 1% BSA and subjected to fluorimetry of the compound using a flow cytometer, Epics Elite (Beckman Coulter, Inc.). The value was indicated as Intracellular Accumulation (FIG. 7-(b)).

LY = test: SRB drug sensitivity, LY parental fibroblasts; assay type: cell-based; conditions: Mus musculus, Fibroblast, 72 hours with agent
MCF-7/R7 [4] = test: SRB drug sensitivity, MCF-7 with introduced ABCG2 of the present invention; assay type: cell-based, human; conditions: MCF-7/R7 (ABCG2 of the present invention), FIG. 6
Method: (§6) The full length human ABCG2 cDNA of the present invention prepared in Example 5 was inserted into a plasmid for expression in mammalian cells, followed by transfection of human breast cancer cells, MCF-7 cells, with the ABCG2 expression plasmid using Effectene Transfection Reagent (QIAGEN). Likewise, human breast cancer cells, MCF-7 cells, were transfected with a plasmid including the ABCG2-482T cDNA prepared in Example 10. The experiments were carried out according to an attached procedural manual. As a control experiment, the MCF-7 cells were also transfected with vector alone. The three experiments were conducted simultaneously. Two days from the transfection, the original media were replaced with selective media containing 900 μg/ml of Geneticin (GIBCO BRL). By culture over a prolonged term under this condition, stable transfectant clones with introduced plasmid were selected. Two to three weeks from the transfection, emerging colonies were picked and the expression of ABCG2 in the cells was examined by Northern Blot analysis. Northern Blot analysis was performed as described in Example 4: 8 μg of total RNA prepared from each clone using RNeasy mini kit (QIAGEN) was separated on a formaldehyde denatured agarose gel, followed by analysis using the human ABCG2 cDNA fragment of the present invention as a probe.
(§7) The drug sensitivity of the stable transfectant clones which were established from MCF-7 cells with introduced ABCG2- or ABCG2-482T-expression plasmid, was measured using SRB method as described in Example 2 and the sensitivity of each transfectant to drugs was shown as a relative resistance to the cells with introduced vector alone (FIG. 6).

HCT116/NR1 = test: SRB drug sensitivity, Compound-A-resistant HCT116/NR1; assay type: cell-based, human
Text: An emerging colony was isolated and designated as HCT116/NR1.

LY/NR2 = test: SRB drug sensitivity, Compound-A-resistant LY/NR2; assay type: cell-based, mouse
Text: An emerging colony was isolated as described above and designated as LY/NR2.

MCF-7/T8 [5] = test: SRB drug sensitivity, MCF-7 with introduced ABCG2-482T; assay type: cell-based, human; conditions: MCF-7/T8 (ABCG2-482T)
Method: as §6, §7

LY/NR1 = test: SRB drug sensitivity, Compound-A-resistant LY/NR1; assay type: cell-based, mouse
Text: A colony that grew under these conditions was isolated using a cloning ring (Asahi Techno Glass Corporation) and designated as LY/NR1.

[6] = tested on: PC-13 cell lines with introduced ABCG2; test: SRB drug sensitivity, PC-13 cell lines with introduced ABCG2 (stated jointly); assay type: cell-based, human; conditions: PC-13 cell lines with introduced ABCG2, versus vector alone
Method: as §2, §3

PC13 = test: SRB drug sensitivity, PC-13 parental cells; assay type: cell-based; conditions: Homo sapiens, 72 hours with agent
PC13/NR13 = test: SRB drug sensitivity, Compound-A-resistant PC-13/NR13; assay type: cell-based, human
HeLa#7 = test: SRB drug sensitivity, spontaneously resistant HeLa#7; assay type: cell-based, human
HeLaS3 = test: SRB drug sensitivity, HeLaS3 (Compound-A-sensitive); assay type: cell-based; conditions: Homo sapiens, HeLa S3, 72 hours with agent
PC-13/ABCG2-2 = test: SRB drug sensitivity, PC-13 transfected with ABCG2 (clone 2); assay type: cell-based, human
Method: as §2, §3

ABCG2 [7] = test: as above; assay type: cell-based, human; conditions: human; PC-13/ABCG2-2; average ± standard error of three independent experiments
Method: as §2, §3

MCF-7/T8 [8] = test: Mitoxantrone accumulation by flow cytometry in MCF-7/T8; assay type: cell-based, human; conditions: 20 μM Mitoxantrone, 90 min, FIG. 7-(b)
Method: as §4, §5

PC-13/ABCG2-3 = test: SRB drug sensitivity, PC-13 transfected with ABCG2 (clone 3); assay type: cell-based, human
Method: as §2, §3

ABCG2 [9] = test: as above; assay type: cell-based, human; conditions: human; PC-13/ABCG2-3; average ± standard error of three independent experiments
Method: as §2, §3

HCT116 = test: SRB drug sensitivity, HCT116 parental cells; assay type: cell-based; conditions: Homo sapiens, HCT-116, 72 hours with agent
[10] = tested on: MCF-7 cells expressing introduced BCRP; conditions: report of Doyle et al. 1998; cited from earlier work

Rhodamine
Intracellular Accumulation compared with the cell with introduced vector alone (MCF-7/R7 [1]): almost the same level | Intracellular Accumulation, of that in the cell with introduced vector alone (MCF-7/T8 [2]): about 50%

O=C1c2c(O)ccc(O)c2C(=O)c2c(NCCNCCO)ccc(NCCNCCO)c21 [Mitoxantrone]
IC50 (PC-13/Vector): 52 ± 21 nM | Intracellular Accumulation, of that in the cell with introduced vector alone (MCF-7/R7 [3]): about 50% | IC50 (LY): 3.3 nM | relative resistance to the cells with introduced vector alone (MCF-7/R7 [4]): 3.8 fold | IC50 (HCT116/NR1; Homo sapiens, HCT-116, HCT116/NR1, SRB, 72 hours with agent): 67 nM | RR: Relative Resistance (HCT116/NR1; IC50 HCT116/NR1 divided by IC50 HCT116): 9.6 | RR: Relative Resistance (LY/NR2; IC50 LY/NR2 divided by IC50 LY): 17 | IC50 (LY/NR2; Mus musculus, LY/NR2, SRB, 72 hours with agent): 57 nM | relative resistance to the cells with introduced vector alone (MCF-7/T8 [5]; FIG. 6): 25 fold | relative resistance to the cells with introduced vector alone (MCF-7/T8 [5]; FIG. 6, listed as mitoxantrone): showed resistance | RR: Relative Resistance (LY/NR1; IC50 LY/NR1 divided by IC50 LY): 1.5 | IC50 (LY/NR1; Mus musculus, LY/NR1, SRB, 72 hours with agent): 7.1 nM | resistance of cells in which ABCG2 was forcedly expressed [6]: did not display remarkable resistance; also recorded: not resistant | IC50 (PC13): 33 nM | IC50 (PC13/NR13; Homo sapiens, PC-13, PC13/NR13, SRB, 72 hours with agent): 160 nM | RR: Relative Resistance (PC13/NR13; IC50 PC13/NR13 divided by IC50 PC13): 4.9 | IC50 (HeLa#7; Homo sapiens, HeLa#7, SRB, 72 hours with agent): 27 nM | RR: Relative Resistance (HeLa#7; IC50 HeLa#7 divided by IC50 HeLaS3): 6.1 | IC50 (HeLaS3): 4.4 nM | Rel. Res. (relative resistance) (PC-13/ABCG2-2; IC50 PC-13/ABCG2-2 divided by IC50 of vector cells): 0.42 | resistance compared to the PC-13 cell with introduced vector alone (PC-13/ABCG2-2; PC-13/ABCG2-2, Example 8): 0.42 fold | IC50 at 72 h (ABCG2 [7]): 22 ± 8 nM | Intracellular Accumulation, of that in the cell with introduced vector alone (MCF-7/T8 [8]): about 20% | Rel. Res. (relative resistance) (PC-13/ABCG2-3; IC50 PC-13/ABCG2-3 divided by IC50 of vector cells): 0.60 | resistance compared to the PC-13 cell with introduced vector alone (PC-13/ABCG2-3; PC-13/ABCG2-3, Example 8): 0.60 fold | IC50 at 72 h (ABCG2 [9]): 31 ± 18 nM | IC50 (HCT116): 7 nM | resistance [10]: 30 fold

— patent US20070141619A1, “DRUG RESISTANCE-ASSOCIATED GENE AND USE THEREOF” (BANYU PHARMACEUTICAL CO., Ltd., priority 2000, published 2007)
